For the test, the system named is T1, CbSITL.
T1 construct: gene SITL
To be noted: Na+-dependent; 150 mM external NaCl, 50 mM Tris pH 7.4, internal 150 mM KCl and 6 mM Zn acetate, valinomycin; sigmoidal rate curve.

As usually defined, the Km is the substrate concentration at which the rate is half of its maximum.

As for `O[Si](O)(O)O` [silicic acid], the Km was 31.8 ± 2.5 µM.
